Results taken from US8653070B2, “Hepatitis C virus inhibitors” (Enanta Pharmaceuticals, Inc., priority 2009, dated 2014).
Like-named read-outs stand apart in the source and are kept apart here.

Tested on: HCV 1b genotype replicon
Assay: HCV replicon assay (qRT-PCR or luciferase), genotype-1b replicon
Type: cell-based
Conditions: Hepatitis C virus, HCV 1b replicon
Text: HCV replicon cell lines (kindly provided by R. Bartenschlager) isolated from colonies as described by Lohman et. al. (Lohman et al. (1999) Science 285: 110-113, expressly incorporated by reference in its entirety) and used for all experiments. The HCV replicon has the nucleic acid sequence set forth in EMBL Accession No.: AJ242651, the coding sequence of which is from nucleotides 1801 to 8406.
The coding sequence of the published HCV replicon was synthesized and subsequently assembled in a modified plasmid pBR322 (Promega, Madison, Wis.) using standard molecular biology techniques. One replicon cell line (“SGR 11-7”) stably expresses HCV replicon RNA which consists of (i) the HCV 5′UTR fused to the first 12 amino acids of the capsid protein, (ii) the neomycin phosphotransferase gene (neo), (iii) the IRES from encephalomyocarditis virus (EMCV) and (iv) HCV NS2 to NS5B genes and the HCV 3′UTR. Another replicon cell line (“Huh-luc/neo-ET”) described by Vrolijk et. al. (Vrolijk et. al. (2003) Journal of Virological Methods 110:201-209, expressly incorporated by reference in its entirety) stably expresses HCV replicon RNA which consists of (i) the HCV 5′UTR fused to the first 12 amino acids of the capsid protein, (ii) the firefly luciferase reporter gene, (iii) the ubiquitin gene, (iv) the neomycin phosphotransferase gene (neo), (v) the IRES from encephalomyocarditis virus (EMCV) and (vi) HCV NS3 to NS5B genes that harbor cell culture adaptive mutations (E1202G, T12801, K1846T) and the HCV 3′UTR.
These cell lines are maintained at 37° C., 5% CO2, 100% relative humidity in DMEM (Cat#11965-084, Invitrogen), with 10% fetal calf serum (“FCS”, Invitrogen), 1% non-essential amino acids (Invitrogen), 1% of Glutamax (Invitrogen), 1% of 100× penicillin/streptomycin (Cat#15140-122, Invitrogen) and Geneticin (Cat#10131-027, Invitrogen) at 0.75 mg/ml or 0.5 mg/ml for 11-7 and Huh-luc/neo-ET cells, respectively.
EC50 values of single agent compounds and combinations are determined by HCV RNA detection using quantitative RT-PCR, according to the manufacturer's instructions, with a TAQMAN® One-Step RT-PCR Master Mix Reagents Kit (Cat# AB 4309169, Applied Biosystems) on an ABI Model 7500 thermocycler. The TAQMAN primers to use for detecting and quantifying HCV RNA obtained from Integrated DNA Technologies. HCV RNA is normalized to GAPDH RNA levels in drug-treated cells, which is detected and quantified using the Human GAPDH Endogenous Control Mix (Applied Biosystems, AB 4310884E). Total cellular RNA is purified from 96-well plates using the RNAqueous 96 kit (Ambion, Cat# AM1812). Chemical agent cytotoxicity is evaluated using an MTS assay according to the manufacturer's directions (Promega).
Since clinical drug resistance often develops in viral infections following single agent therapies, there is a need to assess the additive, antagonistic, or synergistic properties of combination therapies. We used the HCV replicon system to assess the potential use of the compound of the present invention or in combination therapies with Interferon alpha, cyclosporine analogs and inhibitors targeting other HCV proteins. The acute effects of a single or combinations of drugs are studied in the “Huh-luc/neo-ET” replicon with each chemical agent titrated in an X or Y direction in a 6 point two-fold dilution curve centered around the EC50 of each drug. Briefly, replicon cells are seeded at 7,000 cells per well in 90 ul DMEM (without phenol red, Invitrogen Cat.#31053-036) per well with 10% FCS, 1% non-essential amino acids, 1% of Glutamax and 1% of 100× penicillin/streptomycin and incubated overnight at 37° C., 5% CO2, 100% relative humidity. […]

[1] = read-out: Genotype-1b replicon EC50
[2] = read-out: Genotype-1b replicon EC50 Range

SMILES | EC50 [1] [nM] | EC50 [2] [nM]
C=C1C[C@@H](c2nc3cc(C#Cc4ccc(-c5c[nH]c([C@@H]6CCCN6C(=O)[C@@H](NC(=O)OC)C(C)C)n5)cc4)ccc3[nH]2)N(C(=O)[C@@H](NC(=O)OC)C(C)C)C1 [Example 83] | 0.0057 | < 0.01
C=C1C[C@@H](c2nc(-c3ccc(-c4ccc(-c5c[nH]c([C@@H]6CCCN6C(=O)[C@@H](NC(=O)OC)C(C)C)n5)cc4)cc3)c[nH]2)N(C(=O)[C@@H](NC(=O)OC)C(C)C)C1 [Example 252] | 0.0112 | 0.01 to 1
C=C1C[C@@H](c2nc(-c3ccc(C#Cc4ccc5[nH]c([C@@H]6CCCN6C(=O)[C@@H](NC(=O)OC)C(C)C)nc5c4)cc3)c[nH]2)N(C(=O)[C@@H](NC(=O)OC)C(C)C)C1 [Example 300] | 0.0044 | < 0.01
CON=C1C[C@@H](c2nc3cc(C#Cc4ccc(-c5c[nH]c([C@@H]6CCCN6C(=O)[C@@H](NC(=O)OC)C(C)C)n5)cc4)ccc3[nH]2)N(C(=O)[C@@H](NC(=O)OC)C(C)C)C1 [Example 316] | – | < 0.01
C=C1C[C@@H](c2nc(-c3ccc(C#Cc4ccc5[nH]c([C@@H]6C[C@@]7(CCCO7)CN6C(=O)[C@@H](NC(=O)OC)C(C)C)nc5c4)cc3)c[nH]2)N(C(=O)[C@@H](NC(=O)OC)C(C)C)C1 [Example 319] | – | 0.01 to 1
C=C1C[C@@H](c2nc(-c3ccc(C#Cc4ccc5[nH]c([C@@H]6C[C@@]7(CCOC7)CN6C(=O)[C@@H](NC(=O)OC)C(C)C)nc5c4)cc3)c[nH]2)N(C(=O)[C@@H](NC(=O)OC)C(C)C)C1 [Example 321] | – | 0.01 to 1
C=C1C[C@@H](c2nc(-c3ccc(C#Cc4ccc5[nH]c([C@@H]6C[C@]7(CCOC7)CN6C(=O)[C@@H](NC(=O)OC)C(C)C)nc5c4)cc3)c[nH]2)N(C(=O)[C@@H](NC(=O)OC)C(C)C)C1 [Example 323] | 0.0092 | < 0.01
C=C1C[C@@H](c2nc(-c3ccc(C#Cc4ccc5[nH]c([C@@H]6CC7(CC7)CN6C(=O)[C@@H](NC(=O)OC)C(C)C)nc5c4)cc3)c[nH]2)N(C(=O)[C@@H](NC(=O)OC)C(C)C)C1 [Example 325] | 0.0059 | < 0.01
C=C1C[C@@H](c2nc(-c3ccc(C#Cc4ccc5[nH]c([C@@H]6C[C@@]7(CC=CCO7)CN6C(=O)[C@@H](NC(=O)OC)C(C)C)nc5c4)cc3)c[nH]2)N(C(=O)[C@@H](NC(=O)OC)C(C)C)C1 [Example 327] | – | < 0.01
C=C1C[C@@H](c2nc(-c3ccc(C#Cc4ccc5[nH]c([C@@H]6C[C@]7(CCCOC7)CN6C(=O)[C@@H](NC(=O)OC)C(C)C)nc5c4)cc3)c[nH]2)N(C(=O)[C@@H](NC(=O)OC)C(C)C)C1 [Example 329] | – | < 0.01
C=C1C[C@@H](c2nc(-c3ccc(C#Cc4ccc5[nH]c([C@@H]6C[C@@]7(CCCOC7)CN6C(=O)[C@@H](NC(=O)OC)C(C)C)nc5c4)cc3)c[nH]2)N(C(=O)[C@@H](NC(=O)OC)C(C)C)C1 [Example 331] | 0.0137 | 0.01 to 1
COC(=O)N[C@H](C(=O)N1CCC[C@H]1c1nc(-c2ccc(C#Cc3ccc4[nH]c([C@@H]5CC(=C6CC6)CN5C(=O)[C@@H](NC(=O)OC)C(C)C)nc4c3)cc2)c[nH]1)C(C)C [Example 334] | 0.013 | 0.01 to 1
C=C1C[C@@H](c2nc(-c3ccc(C#Cc4ccc5[nH]c([C@@H]6CC(=C)CN6C(=O)[C@@H](NC(=O)OC)C(C)C)nc5c4)cc3)c[nH]2)N(C(=O)[C@@H](NC(=O)OC)C(C)C)C1 [Example 336] | 0.0064 | < 0.01
